Measured values from US8546440B2, “Substituted bicyclic imidazole derivatives as gamma secretase modulators” (Janssen Pharmaceuticals, Inc., priority 2008, dated 2013).

How the values were obtained:
Type in all cases: cell-based
Aβ42 [1] = assay: Screening for γ-secretase-modulating activity, Method 1: Aβ42 sandwich ELISA in supernatant of SKNBE2 cells carrying APP 695 wild type (Tables 12a, 12b)
Protocol: (§1) Screening was carried out using SKNBE2 cells carrying the APP 695—wild type, grown in Dulbecco's Modified Eagle's Medium/Nutrient mixture F-12 (DMEM/NUT-mix F-12) (HAM) provided by Gibco (cat no. 31330-38) containing 5% Serum/Fe supplemented with 1% non-essential amino acids. Cells were grown to near confluency.
(§2) The screening was performed using the assay as described in Citron et al (1997) Nature Medicine 3: 67. Briefly, cells were plated in a 96-well plate at about 10^5 cells/ml one day prior to addition of compounds. Compounds were added to the cells in Ultraculture (Lonza, BE12-725F) supplemented with 1% glutamine (Invitrogen, 25030-024) for 18 hours. The media were assayed by two sandwich ELISAs, for Aβ42 and Aβtotal. Toxicity of the compounds was assayed by WST-1 cell proliferation reagent (Roche, 1 644 807) according to the manufacturer's protocol.
To quantify the amount of Aβ42 in the cell supernatant, commercially available Enzyme-Linked-Immunosorbent-Assay (ELISA) kits were used (Innotest® β-Amyloid(1-42), Innogenetics N.V., Ghent, Belgium). The Aβ42 ELISA was performed essentially according to the manufacturer's protocol. Briefly, the standards (dilutions of synthetic Aβ1-42) were prepared in polypropylene Eppendorf with final concentrations of 8000 down to 3.9 pg/ml (1/2 dilution step). Samples, standards and blanks (100 μl) were added to the anti-Aβ42-coated plate supplied with the kit (the capture antibody selectively recognizes the C-terminal end of the antigen). The plate was allowed to incubate 3 h at 25° C. in order to allow formation of the antibody-amyloid complex. Following this incubation and subsequent wash steps a selective anti-Aβ-antibody conjugate (biotinylated 3D6) was added and incubated for a minimum of 1 hour in order to allow formation of the antibody-Amyloid-antibody-complex. After incubation and appropriate wash steps, a Streptavidine-Peroxidase-Conjugate was added, followed 30 minutes later by an addition of 3,3′,5,5′-tetramethylbenzidine (TMB)/peroxide mixture, resulting in the conversion of the substrate into a coloured product. This reaction was stopped by the addition of sulfuric acid (0.9 N) and the colour intensity was measured by means of photometry with an ELISA-reader with a 450 nm filter.
(§3) To obtain the values reported in Table 12a, the sigmoidal dose response curves were analysed by computerised curve-fitting, with percent of inhibition plotted against compound concentration. A 4-parameter equation (model 205) in XLfit was used to determine the IC50. The top and the bottom of the curve were fixed to 100 and 0, respectively, and the hill slope was fixed to 1. The IC50 represents the concentration of a compound that is required for inhibiting a biological effect by 50% (Here, it is the concentration where Aβ peptide level is reduced by 50%).
(§4) To obtain the values reported in Table 12b, the data are calculated as percentage of the maximum amount of amyloid Beta 42 measured in the absence of the test compound. The sigmoidal dose response curves were analyzed using non-linear regression analysis with percentage of the control plotted against the log concentration of the compound. A 4-parameter equation was used to determine the IC50. The values reported in Table 12b are averaged IC50 values.

Aβtotal [2] = assay: Screening for γ-secretase-modulating activity, Method 1: Aβtotal sandwich ELISA in supernatant of SKNBE2 cells carrying APP 695 wild type (Tables 12a, 12b)
Protocol: as §1, §2
To quantify the amount of Aβtotal in the cell supernatant, samples and standards were added to a 6E10-coated plate. The plate was allowed to incubate overnight at 4° C. in order to allow formation of the antibody-amyloid complex. Following this incubation and subsequent wash steps a selective anti-Aβ-antibody conjugate (biotinylated 4G8) was added and incubated for a minimum of 1 hour in order to allow formation of the antibody-Amyloid-antibody-complex. After incubation and appropriate wash steps, a Streptavidine-Peroxidase-Conjugate was added, followed 30 minutes later by an addition of Quanta Blu fluorogenic peroxidase substrate according to the manufacturer's instructions (Pierce Corp., Rockford, Ill.).
as §3, §4

Aβ42 [3] = assay: Screening for γ-secretase-modulating activity, Method 2: Aβ42 Alphalisa in supernatant of SKNBE2 cells carrying APP 695 wild type (Table 12c); settings: Method 2, Table 12c, incubated overnight
Protocol: as §1, with “Invitrogen” for “Gibco”, “10371-029)” for “31330-38)”, “acids, 1-glutamine 2 mM, Hepes 15 mM, penicillin 50 U/ml (units/ml) en streptomycin 50 μg/ml.” for “acids.”
(§5) The screening was performed using a modification of the assay as described in Citron et al (1997) Nature Medicine 3: 67. Briefly, cells were plated in a 384-well plate at 10^4 cells/well in Ultraculture (Lonza, BE12-725F) supplemented with 1% glutamine (Invitrogen, 25030-024), 1% non-essential amino acid (NEAA), penicillin 50 U/ml en streptomycin 50 μg/ml in the presence of test compound at different test concentrations. The cell/compound mixture was incubated overnight at 37° C., 5% CO2, The next day the media were assayed by two sandwich immuno-assays, for Aβ42 and Aβtotal.
(§6) Aβtotal and Aβ42 concentrations were quantified in the cell supernatant using the Aphalisa technology (Perkin Elmer). Alphalisa is a sandwich assay using biotinylated antibody attached to streptavidin coated donorbeads and antibody conjugated to acceptor beads. In the presence of antigen, the beads come into close proximity. The excitation of the donor beads provokes the release of singlet oxygen molecules that trigger a cascade of energy transfer in the acceptor beads, resulting in light emission. To quantify the amount of Aβ42 in the cell supernatant, monoclonal antibody specific to the C-terminus of Aβ42 (JRF/cAβ42/26) was coupled to the receptor beads and biotinylated antibody specific to the N-terminus of Aβ (JRF/AβN/25) was used to react with the donor beads. To quantify the amount of Aβtotal in the cell supernatant, monoclonal antibody specific to the N-terminus of Aβ (JRF/AβN/25) was coupled to the receptor beads and biotinylated antibody specific to the mid region of Aβ (biotinylated 4G8) was used to react with the donor beads.
as §4, with “12c,” for “12b,”, “IC50.” for “IC50. The values reported in Table 12b are averaged IC50 values.”

Aβtotal [4] = assay: Screening for γ-secretase-modulating activity, Method 2: Aβtotal Alphalisa in supernatant of SKNBE2 cells carrying APP 695 wild type (Table 12c); settings: Method 2, Table 12c, incubated overnight
Protocol: as §1, with “Invitrogen” for “Gibco”, “10371-029)” for “31330-38)”, “acids, 1-glutamine 2 mM, Hepes 15 mM, penicillin 50 U/ml (units/ml) en streptomycin 50 μg/ml.” for “acids.”
as §5, §6
as §4, with “12c,” for “12b,”, “IC50.” for “IC50. The values reported in Table 12b are averaged IC50 values.”

[5] = Homo sapiens, Method 1, Table 12a, SKNBE2 cells carrying APP 695 wild type, compounds 18 hours, ELISA, curve top and bottom fixed to 100 and 0, hill slope 1
[6] = Homo sapiens, Table 12b, Method 1, SKNBE2 cells carrying APP 695 wild type, cell supernatant ELISA, averaged IC50 values, percentage of control vs log concentration
[7] = Homo sapiens, Table 12b, Method 1, SKNBE2 cells carrying APP 695 wild type, cell supernatant ELISA, averaged IC50 values
[8] = Method 1, Table 12a, SKNBE2 cells carrying APP 695 wild type, compounds 18 hours, ELISA, curve top and bottom fixed to 100 and 0, hill slope 1
[9] = Table 12b, Method 1, SKNBE2 cells carrying APP 695 wild type, cell supernatant ELISA, averaged IC50 values, percentage of control vs log concentration
[10] = Table 12b, Method 1, SKNBE2 cells carrying APP 695 wild type, cell supernatant ELISA, averaged IC50 values

SMILES	IC50 (Aβ42 [1]; [5]) [nM]	IC50 (Aβ42 [1]; [6]) [nM]	IC50 (Aβtotal [2]; [5]) [nM]	IC50 (Aβtotal [2]; [7]) [nM]	IC50 (Aβ42 [1]; [9]) [nM]	IC50 (Aβtotal [2]; [10]) [nM]	also measured
COc1cc(Nc2cccn3c(-c4cccc(-c5ccccc5)c4)cnc23)ccc1-n1cnc(C)c1 [Compound 61]	423	437	> 10000	> 10000			
COc1cccc(-c2nc3c(Nc4ccc(-n5cnc(C)c5)cc4)cccn3c2C)c1 [Compound 64]	13	17	> 3000	> 3020			
COc1cccc(-c2nc3c(Nc4ccc(-n5cnc(C)c5)cn4)cccn3c2C)c1 [Compound 68]					18	> 3020	IC50 (Aβ42 [1]; [8]): 18 nM; IC50 (Aβtotal [2]; [8]): > 1000 nM
CCCCc1cn2cccc(Nc3ccc(-n4cnc(C)c4)c(OC)c3)c2n1 [Compound 69]							IC50 (Aβ42 [3]): 46 nM; IC50 (Aβtotal [4]): > 10000 nM
CCCCc1cn2cccc(Nc3ccc(-n4cnc(C)n4)cc3)c2n1 [Compound 76]					1950	> 10000	
Cc1ncn(-c2ccc(Nc3cccn4cc(-c5cc(C(F)(F)F)ccc5C)nc34)nc2)n1 [Compound 81]					380	> 10000	
COc1cc(Nc2cccn3cc(-c4ccc(F)cc4C)nc23)ccc1-n1cnc(C)n1 [Compound 89]		85		> 3020			
Cc1ncn(-c2ccc(Nc3cccn4cc(-c5ccc(F)cc5C)nc34)cc2)n1 [Compound 90]		398		> 3020			

The next lines start with results.

IC50 (Aβ42 [1]; [5]) [nM]	IC50 (Aβ42 [1]; [6]) [nM]	IC50 (Aβtotal [2]; [5]) [nM]	IC50 (Aβtotal [2]; [7]) [nM]	IC50 (Aβ42 [1]; [9]) [nM]	IC50 (Aβtotal [2]; [10]) [nM]	SMILES	also measured
477	417	> 10000	> 3020			COc1cc(Nc2cccn3c(C(=O)c4ccc(F)cc4)cnc23)ccc1-n1cnc(C)c1 [Compound 62]	
782	661	27200	17800			COc1cccc(-c2nc3c(Nc4ccc(-n5ccnc5C)cc4)cccn3c2C)c1 [Compound 65]	
51	40	> 3000	> 3020			COc1cccc(-c2nc3c(Nc4ccc(-n5cnc(C)n5)c(OC)c4)cccn3c2C)c1 [Compound 67]	
	126		> 3020			Cc1ccc(C(F)(F)F)cc1-c1cn2cccc(Nc3ccc(-n4ncnc4C)cc3)c2n1 [Compound 75]	
2690	4360	> 10000	> 10000			COc1cc(Nc2cccn3cc(C)nc23)ccc1-n1cnc(C)n1 [Compound 77]	
				562	> 3020	Cc1ncn(-c2ccc(Nc3cccn4cc(-c5ccccc5C)nc34)nc2)n1 [Compound 82]	
				115	> 3020	Cc1ncn(-c2ccc(Nc3cccn4cc(-c5cc(C(F)(F)F)ccc5C)nc34)cn2)n1 [Compound 84]	
184	174	> 3000	> 10000			COc1cc(Nc2cccn3cc(-c4ccccc4F)nc23)ccc1-n1cnc(C)c1 [Compound 88]	
